Assay results published in patent US20120172344A1, “INSULIN-PRODUCING CELL INDUCER, GLUCOSE INTAKE ENHANCER, AND THERAPEUTIC AGENT FOR DIABETES OR DIABETES COMPLICATIONS” (KYUSHU UNIVERSITY, NATIONAL UNIVERSITY CORPORATION, priority 2009, published 2012).

Test system: muscles (soleus muscle) of Tg23 mice
Assay: Experimental Example 3: glucose (2-deoxy-D-glucose) intake of soleus muscles
Assay type: in vivo, mouse
Settings: isolated soleus muscles of WT and Tg mice incubated in KRB buffer with vs without insulin, 10 minutes at 30° C.
Description: Mice were sacrificed, and extensor digitorum longus (EDL) muscles and soleus muscles were quickly removed and processed. Both ends of each of the muscles were tied with suture (silk 4-0), and mounted on an incubation apparatus. First, the muscles were preincubated for 20 minutes in 6 ml of Krebs-Ringer bicarbonate (KRB) buffer (117 mM NaCl, 4.7 mM KCl, 2.5 mM CaCl2, 1.2 mM KH2PO4, 1.2 mM MgSO4, 24.6 mM NaHCO3, pH 7.5) containing 2 mM pyruvate. Then, the muscles were incubated in KRB buffer in presence or absence of insulin.
Immediately after muscle incubation, the muscles were transferred to KRB buffer containing 1 mM 2-deoxy-D-[^3H]glucose (1.5 μCi/ml) and 7 mM D-[^14C]mannitol (0.3 μCi/ml) (PerkinElmer Life Sciences) at 30° C., and incubated again for 10 minutes. When using insulin, a buffer containing insulin was used for incubation in a similar manner.
Glucose transport was terminated by dipping the muscles in KRB buffer containing 80 μmol/L cytochalasin B at 4° C., and then the muscles were frozen in liquid nitrogen. The muscles were weighed, and digested by incubating in 250 μl of 1 M NaOH at 80° C. for 10 minutes. Digests were neutralized with 250 μl of 1 M HCl. […] Radioactivity in aliquots of the digested muscle was determined by liquid scintillation counting for dual labels, and extracellular and intracellular spaces were calculated. […]

insulin
amount of glucose intake of muscles in presence (+) of insulin: increased
